From patent US8013137B2, “Modified enteropeptidase protein” (National University Corporation Hokkaido University, priority 2006, dated 2011)
Like-named read-outs stand apart in the source and are kept apart here. One block for each molecule: values may come before it. Non-standard residues stand in square brackets, D forms with d. Residues, ends and D or L forms follow the SMILES beside them. *: point of attachment. Sta = CC(C)C[C@H](N)[C@@H](O)CC(=O)O; Isovaleryl = CC(C)CC(=O)*

Key:
medaka EP-2 protease = assay: Inhibitor assay, enzyme activity measured using GD4K-βNA as a substrate; type: biochemical, medaka (Oryzias latipes)
medaka EP-1 protease = assay: as above; type: biochemical, medaka (Oryzias latipes)
[1] = target: T1, medaka EP-1 enteropeptidase serine protease domain, wild type, SEQ ID NO: 2 (Oryzias latipes, UniProt A4UWM5); assay: Inhibitor assay, EP-1 protease activity on GD4K-βNA; type: biochemical, Japanese Medaka (Oryzias latipes); conditions: pH 7.4
T1 sequence (A4UWM5 795-1036): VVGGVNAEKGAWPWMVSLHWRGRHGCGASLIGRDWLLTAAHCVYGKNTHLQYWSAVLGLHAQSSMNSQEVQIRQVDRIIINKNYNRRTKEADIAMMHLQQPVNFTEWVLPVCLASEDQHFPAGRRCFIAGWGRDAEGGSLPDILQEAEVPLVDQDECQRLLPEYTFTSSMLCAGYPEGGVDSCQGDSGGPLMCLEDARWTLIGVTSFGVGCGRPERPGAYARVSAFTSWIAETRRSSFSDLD

[2] = target: medaka EP-2 enteropeptidase serine protease domain, wild type (EP-2, SEQ ID NO: 72) (Oryzias latipes, UniProt A4UWM6); assay: Inhibitor assay, EP-2 protease activity on GD4K-βNA; type: biochemical, Japanese Medaka (Oryzias latipes); conditions: pH 7.4
[3] = inhibitor 1.0 mM, GD4K-βNA substrate, 10 min preincubation
[4] = inhibitor 0.1 mM, GD4K-βNA substrate, 10 min preincubation
[5] = inhibitor 0.01 mg/ml, GD4K-βNA substrate, 10 min preincubation
[6] = 0.2 mM inhibitor, GD4K-βNA substrate, 10 min preincubation

Chain of medaka EP-2 enteropeptidase serine protease domain, wild type (EP-2, SEQ ID NO: 72) (A4UWM6 802-1043): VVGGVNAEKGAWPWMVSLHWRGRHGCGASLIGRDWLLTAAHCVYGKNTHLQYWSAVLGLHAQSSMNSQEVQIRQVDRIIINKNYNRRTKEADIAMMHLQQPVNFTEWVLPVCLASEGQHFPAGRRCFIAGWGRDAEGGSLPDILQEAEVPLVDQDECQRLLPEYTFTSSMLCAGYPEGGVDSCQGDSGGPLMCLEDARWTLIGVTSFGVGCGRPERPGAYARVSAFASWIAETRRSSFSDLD

Inhibition (%) EP-2 (medaka EP-2 protease; [3]): 78%
Inhibition (%) EP-1 (medaka EP-1 protease; [3]): 79%
Molecule: N=C(N)c1ccccc1 [Benzamidine]

Inhibition (%) EP-2 (medaka EP-2 protease; [4]): 3%
Inhibition (%) EP-1 (medaka EP-1 protease; [4]): 0%
Molecule: CC(C)CC(=O)N[C@H](C(=O)N[C@H](C(=O)N[C@@H](CC(C)C)[C@@H](O)CC(=O)N[C@@H](C)C(=O)N[C@@H](CC(C)C)[C@@H](O)CC(=O)O)C(C)C)C(C)C [Pepstatin] (Isovaleryl-VV[Sta]A[Sta]-OH)

inhibition at 200 µM [1, 6]: 0%
inhibition at 200 µM [2, 6]: 0%
Molecule: CC(C)C[C@H](NC(=O)[C@H]1O[C@@H]1C(=O)O)C(=O)NCCCCN=C(N)N [E-64]

The next lines start with the molecule.

Molecule: CC(C)C[C@H](NC(=O)[C@@H](NC(=O)N[C@@H](Cc1ccccc1)C(=O)O)[C@@H]1CCN=C(N)N1)C(=O)N[C@H](C=O)Cc1ccccc1 [Chymostatin]
Inhibition (%) EP-2 (medaka EP-2 protease): 0%
Inhibition (%) EP-1 (medaka EP-1 protease): 0%

Molecule: CC(=O)N[C@@H](CC(C)C)C(=O)N[C@@H](CC(C)C)C(=O)N[C@H](C=O)CCCNC(=N)N [Leupeptin]
Inhibition (%) EP-2 (medaka EP-2 protease): 47%
Inhibition (%) EP-1 (medaka EP-1 protease): 43%

Molecule: O=C(O)CN(CCN(CC(=O)O)CC(=O)O)CC(=O)O [EDTA]
inhibition at 5000 µM [1]: 5%
inhibition at 5000 µM [2]: 10%

Molecule: Aprotinin
Inhibition (%) EP-2 (medaka EP-2 protease; [5]): 5%
Inhibition (%) EP-1 (medaka EP-1 protease; [5]): 0%
